Results reported in patent US12285425B2, “Glucocorticoid receptor modulators to treat cervical cancer” (Corcept Therapeutics, Inc., priority 2017, dated 2025).

Key:
[1] = test system: human HeLa cervical cancer cells; assay: Implanted HeLa cervical cancer tumor growth in mice, CORT125134 and paclitaxel; type: in vivo
Protocol: Suspensions of human HeLa cervical cancer cells were injected subcutaneously into the right flank of 5-6 week old immunosuppressed female mice (BALB/c nude), five million cells per mouse. Tumors were allowed to grow until they reached a volume of 100-200 mm^3. Mice were then grouped into five groups, ten (10) per group. Group 1 was dosed with the paclitaxel vehicle (sterile saline) intravenously (i.v.) every 4 days and the CORT125134 vehicle orally (p.o.) (10% DMSO, 0.1% Tween 80 and 89.9% HPMC (0.5%), 10 ml/kg) every 4 days. Group 2 was dosed with paclitaxel (7.5 mg/kg) i.v. every 4 days. Group 3 was dosed with paclitaxel i.v. every 4 days and with CORT125134 (30 mg/kg) p.o. the day before the administration of paclitaxel and the same day as the administration of paclitaxel. Group 4 received paclitaxel (15 mg/kg) i.v. every 4 days. Group 5 received paclitaxel (15 mg/kg) i.v. every 4 days and CORT125134 (30 mg/kg) p.o. the day before and the day of paclitaxel (15 mg/kg) i.v. administration.
The longest (L) and shortest (S) diameters of the tumors were measured three times a week with electronic calipers and tumor volume was calculated using the formula for an ellipsoid sphere: S^2×L×(0.5). The tumor growth data are shown in FIG. 1, in which the mean tumor volume for each group of mice is plotted against the number of days of tumor growth since initiation of the treatment. All treatments provide benefit compared to vehicle alone.

MDA-MB-231 cells = assay: Triple negative breast cancer (TNBC) mouse xenograft model, CORT125134 with paclitaxel; type: in vivo, mice
Protocol: MDA-MB-231 cells (10 million cells per mouse) were injected orthotopically in the right mammary fat pad in groups of female Balb/c nude mice. When the tumors reached a volume of 100-200 mm^3, the mice were randomized into groups of 10 and treatment was initiated. Mice were treated as follows: group 1 received vehicle daily, group 2 received paclitaxel 5 mg/kg i.v. every 4 days, group 3 received paclitaxel 5 mg/kg i.v. every 4 days and CORT125134 30 mg/kg p.o. daily. Tumor volumes were measured 3 times a week in 2 dimensions using a caliper and the volume expressed in mm^3 using the formula V=0.5 a×b2 where a and b are the long and short diameters of the tumor, respectively. Dosing was continued for 28 days, but any mouse in poor condition or with a tumor exceeding 3000 mm^3 was terminated. For comparison between two groups an independent sample t-test was used; for comparison among three or more groups a one-way ANOVA was performed followed by multiple comparison procedures. A p-value <0.05 was considered to be statistically significant. The effect of CORT125134 in combination with paclitaxel in a triple negative breast cancer (TNBC) mouse xenograft model is shown in FIG. 2. Data represent mean+SEM.

SK-OV-3 cells = assay: Ovarian cancer mouse xenograft model, CORT125134 with gemcitabine/carboplatin; type: in vivo, mice
Protocol: CORT125134 was administered intraperitoneally (i.p.) on days 43, 44, 50 and 51, and gemcitabine/carboplatin was administered i.p. on days 44 and 51. Data represent mean values. SK-OV-3 cells (5 million cells per mouse) were injected in the right flank of female Balb/c nude mice. When tumors reached a volume of 200 mm^3 the mice were randomized into groups of 10 and treatment was initiated. Mice were treated as follows: group 1 received vehicle on dosing days 1, 2, 8 and 9, group 2 received gemcitabine (80 mg/kg i.p.) and carboplatin (15 mg/kg i.p.) on dosing days 2 and 9 and group 3 received gemcitabine/carboplatin in the same regimen as group 2, +CORT125134 (20 mg/kg i.p.) on dosing days 1, 2, 8 and 9. Tumor volumes were measured 3 times a week and tumor volumes were calculated as detailed above. Any mouse in poor condition or with a tumor exceeding 2000 mm^3 was terminated. The results were analyzed as indicated in Example 2 above.

22Rv1 cells = assay: Prostate cancer (CRPC) mouse xenograft model, CORT125134 with castration; type: in vivo; details: CORT125134 30 mg/kg p.o. daily for 21 days
Protocol: 22Rv1 cells (10 million cells per mouse) were injected in the right flank of male Balb/c nude mice. When the tumors reached a volume of 100-200 mm^3 the mice were randomized into groups of 10 and then 2 of the 3 groups were castrated. Treatment was initiated the day after castration as follows: group 1 (not castrated) received vehicle, group 2 (castrated) received vehicle, and group 3 (castrated) received CORT125134 30 mg/kg orally (p.o.) daily for 21 days. Tumor volumes were measured 3 times a week as described previously. Any mouse in poor condition or with a tumor exceeding 3000 mm^3 was terminated. The results were analyzed as indicated in Example 2 above. Data represent mean+SEM.

cervical cancer = assay: Treating a patient having cervical cancer with SGRM and a chemotherapeutic agent; type: in vivo, human; details: CORT125134 200 mg once a day for eight weeks with nab-paclitaxel 80 mg per square meter i.v. days 1, 8, 15 of 28-day cycle; one patient
Protocol: A patient complains of upper abdomen pain. They are experiencing loss of appetite, nausea and vomiting episodes, and significant weight loss. […] The suspected tumor is confirmed by histological analysis to be a cancerous tumor. The patient is treated with CORT125134 at a dose of 200 mg once a day for eight weeks in combination with an intravenous infusion of nab-paclitaxel at a dose of 80 mg per square meter of body-surface area as an intravenous infusion over 30 minutes on days 1, 8, and 15 of every 28-day cycle. Tumor load is monitored using enhanced MRI before, during and after the treatment. The imaging indicate that tumor size is decreasing, and the reduction is more than 50% at the end of the treatment period.

[2] = paclitaxel 5 mg/kg i.v. every 4 days + CORT125134 30 mg/kg p.o. daily
[3] = gemcitabine/carboplatin + CORT125134 20 mg/kg i.p.

Cn1cc(S(=O)(=O)N2CCC3=Cc4c(cnn4-c4ccc(F)cc4)C[C@]3(C(=O)c3cc(C(F)(F)F)ccn3)C2)cn1 [CORT125134, (R)-(1-(4-fluorophenyl)-6-((1-methyl-1H-pyrazol-4-yl)sulfonyl)-4,4a,5,6,7,8-hexahydro-1H-pyrazolo[3,4-g]isoquinolin-4a-yl)(4-(trifluoromethyl)pyridin-2-yl)methanone]
p, tumor growth comparison Group 3 vs Group 5 ([1]; CORT125134 30 mg/kg + paclitaxel 15 mg/kg (Group 5) vs CORT125134 30 mg/kg + paclitaxel 7.5 mg/kg (Group 3)): 0.0009 | p, tumor growth comparison Group 2 vs Group 3 ([1]; CORT125134 30 mg/kg p.o. day before and day of paclitaxel + paclitaxel 7.5 mg/kg i.v. every 4 days (Group 3) vs paclitaxel 7.5 mg/kg alone (Group 2)): 0.008 | p, tumor growth comparison Group 4 vs Group 5 ([1]; CORT125134 30 mg/kg p.o. day before and day of paclitaxel + paclitaxel 15 mg/kg i.v. every 4 days (Group 5) vs paclitaxel 15 mg/kg alone (Group 4)): <0.0001 | tumor growth, combination of paclitaxel and CORT125134 compared with paclitaxel alone ([1]; CORT125134 30 mg/kg p.o. with paclitaxel 7.5 or 15 mg/kg i.v., either dose of paclitaxel): more effective than paclitaxel alone | p, combination compared to paclitaxel alone (MDA-MB-231 cells; [2]): < 0.05 | p, combination compared to vehicle treated mice (MDA-MB-231 cells; [2]): < 0.05 | effect on tumor growth, combination of paclitaxel and CORT125134 (MDA-MB-231 cells; paclitaxel 5 mg/kg i.v. every 4 days + CORT125134 30 mg/kg p.o. daily, 28 days): significant inhibition of tumor growth | effect on tumor growth, combination of gemcitabine/carboplatin with CORT125134 (SK-OV-3 cells; gemcitabine 80 mg/kg + carboplatin 15 mg/kg i.p. dosing days 2, 9 + CORT125134 20 mg/kg i.p. dosing days 1, 2, 8, 9): significant inhibition of tumor growth | p, combination compared to vehicle (SK-OV-3 cells; [3]): < 0.001 | p, combination compared with carboplatin/gemcitabine (SK-OV-3 cells; [3]): < 0.01 | effect on tumor growth, CORT125134 in castrated mice compared to mice not castrated (22Rv1 cells): inhibited tumor growth | p, CORT125134 in castrated mice compared to mice not castrated (22Rv1 cells): < 0.0001 | p, castration and CORT125134 vs castration alone (22Rv1 cells; castrated mice): < 0.05 | tumor growth, combination of castration and CORT125134 compared with castration alone (22Rv1 cells; castrated mice): more effective than castration alone | reduction of tumor size at the end of the treatment period (enhanced MRI) (cervical cancer): more than 50%

CC(=O)O[C@H]1C(=O)[C@@]2(C)[C@H]([C@H](OC(=O)c3ccccc3)[C@]3(O)C[C@H](OC(=O)[C@H](O)[C@@H](NC(=O)c4ccccc4)c4ccccc4)C(C)=C1C3(C)C)[C@]1(OC(C)=O)CO[C@@H]1C[C@@H]2O [paclitaxel, reference compound]
p, tumor growth comparison Group 1 vs Group 2 ([1]; paclitaxel 7.5 mg/kg i.v. every 4 days (Group 2) vs vehicle (Group 1)): 0.0281 | p, tumor growth comparison Group 1 vs Group 4 ([1]; paclitaxel 15 mg/kg i.v. every 4 days (Group 4) vs vehicle (Group 1)): 0.0006 | p compared with vehicle treated mice, paclitaxel alone (MDA-MB-231 cells; paclitaxel 5 mg/kg i.v. every 4 days): not significant | effect on tumor growth, paclitaxel alone (MDA-MB-231 cells; paclitaxel 5 mg/kg i.v. every 4 days, 28 days): ineffective
